Assay results published in patent US8530471B2, “Therapeutic cyclopentane derivatives” (Allergan, Inc., priority 2008, dated 2013).

How the values were obtained:
normotensive dogs = test: Intraocular pressure (IOP) reduction in normotensive dogs; format: in vivo
Protocol: Compounds such as those described in the above are tested in vivo to measure its ability to reduce intraocular pressure. Compound A is tested in normotensive dogs.
Compound B is tested in normotensive dogs.

[1] = system: laser-induced hypertensive monkeys; test: Intraocular pressure (IOP) reduction in laser-induced hypertensive monkeys; format: in vivo
[2] = system: lashes and adjacent hairs of patients; test: Observation of lashes in glaucoma patients treated in only one eye; format: in vivo, human; conditions: glaucoma patient, unilateral treatment
Excerpt: In the course of treating patients having glaucoma, treatment may only be appropriate in one eye. […] The lash appearance on the lids of the treated eyes would have appeared quite attractive if it represented a bilateral phenomenon. As a result of its asymmetric nature, the long lashes on one side could be construed as disturbing from a cosmetic standpoint. A systemic examination was preformed as a result of the asymmetric phenomenon. It soon became apparent that this altered appearance was not an isolated finding. […] Definite differences could be identified to varying degrees in the lashes and adjacent hairs of all patients who were taking the drug on a unilateral basis for longer than 6 months.
The changes in the lashes were apparent on gross inspection in several patients once attention was focused on the issue. In those with light colored hair and lashes, the differences were only seen easily with the aid of the high magnification and lighting capabilities of the slit lamp biomicroscope. In the course of glaucoma follow-up examination, attention is generally immediately focused on the eye itself. As a result of the high power magnification needed only one eye is seen at a time and the eye is seen at a high enough power that the lashes are not in focus. […]

CCCCCC(O)c1ccc([C@@H]2[C@@H](C/C=C\CCCC(=O)OCCN3CCOCC3)[C@H](C#N)C[C@H]2O)cc1 (some centres unmarked) [Compound B]
intraocular pressure (IOP) change from baseline (normotensive dogs): decreases from baseline
intraocular pressure (IOP) change from baseline [1]: decreases from baseline

CCCCCC(O)c1ccc([C@@H]2[C@@H](C/C=C\CCCC(=O)OCCO)[C@H](C#N)C[C@H]2O)cc1 (some centres unmarked) [Compound A]
intraocular pressure (IOP) change from baseline (normotensive dogs): decreases from baseline
intraocular pressure (IOP) change from baseline [1]: decreases from baseline

CCNC(=O)CCC/C=C\C[C@@H]1[C@@H](/C=C/[C@@H](O)CCc2ccccc2)[C@H](O)C[C@@H]1O [bimatoprost]
lash appearance in treated eye versus non-treated eye [2]: longer, thicker, and fuller in the treated eye than in the non-treated eye
